Source: patent EP0477107B1, “Steroids contained in cyclodextrins” (Laboratoires BESINS ISCOVESCO Société anonyme dite :, priority 1990, dated 1992)
Values after ≈ are worked out from the molar mass of the structure shown. Where two headings read alike, the source gives them in different places.

Assay: Saturation solubility of steroids in water and in aqueous cyclodextrin solutions (25°, 72 h stirring, filtration, assay of supernatant)
Type: physicochemical
Description: On réalise des solutions de bétacyclodextrines à différentes concentrations de 0 à 5mM. A ces différentes solutions, on ajoute de la prégnane-5-béta-ol-3alpha-one-20 par pincées et ce jusqu'à apparition d'un précipité. On met sous agitation magnétique à 25° pendant 72 heures en prenant soin de vérifier à intervalles réguliers qu'il y a toujours saturation en stéroïdes. Au bout de 72 heures, on filtre les solutions ainsi réalisées et on dose le surnageant. Les résultats obtenus font l'objet de la courbe de la figure 1.
Excepté la concentration en ladite cyclodextrine qui varie de 0 à 32mM, on procède selon le même protocole qu'à l'exemple 1; les résultats sont illustrés par la courbe de la figure 2.
On procède selon le même protocole qu'à l'exemple 1. Les résultats sont représentés par la courbe de la figure 3.
On travaille selon les mêmes conditions qu'à l'exemple 1. Les résultats obtenus sont schématisés par la courbe de la figure 4.
On suit encore le même protocole qu'à l'exemple 1 sauf en ce que la concentration en bétacyclodextrine varie de 0 à 4mM et les résultats font l'objet de la courbe de la figure 5.
Ici encore on suit le même protocole qu'à l'exemple 1 sauf en ce que la concentration en hydroxypropybéta-cyclodextrine varie de 0 à 32mM et les résultats sont représentés par la courbe de la figure 6.

Compound	solubility at 72 h (water + betacyclodextrin, read-out: SOLUBILITE EN GRAMMES PAR LITRE dans eau + bétacyclodextrine) [µg/mL]	solubility at 72 h (water + hydroxypropylbetacyclodextrin, optimal solubility read from the curves at the adequate hydroxypropylbétacyclodextrine concentration (up to 32mM), 25°, 72 h, read-out: SOLUBILITE EN GRAMMES PAR LITRE dans eau + hydroxypropylbétacyclodextrine) [µg/mL]	solubility at 72 h (water without cyclodextrin, 25°, 72 h, read-out: SOLUBILITE EN GRAMMES PAR LITRE dans l'eau) [µg/mL]	SOLUBILITE EN GRAMMES PAR LITRE dans eau + bétacyclodextrine (optimal solubility read from the curves at the adequate bétacyclodextrine concentration (0 to 5mM; 0 to 4mM for dihydro-4-progestérone), 25°, 72 h)	SOLUBILITE EN GRAMMES PAR LITRE dans eau + hydroxypropylbétacyclodextrine (optimal solubility read from the curves at the adequate hydroxypropylbétacyclodextrine concentration (up to 32mM), 25°, 72 h)	SOLUBILITE EN GRAMMES PAR LITRE dans l'eau (water without cyclodextrin, 25°, 72 h)
CC(=O)[C@H]1CC[C@H]2[C@@H]3CC[C@@H]4C[C@H](O)CC[C@]4(C)[C@H]3CC[C@]12C [Prégnanolone, prégnanol-3alpha-one-20]	440	3000	5 (≈ 15.7 µM)	–	–	–
prégnane-diol-3,20 [Dihydroprogestérone]	–	–	–	0,06 GRAMMES PAR LITRE	1,4 GRAMMES PAR LITRE	0,005 GRAMMES PAR LITRE
